B1: bcSMase: SMase from Bacillus cereus (Sigma-Aldrich) (protein, UniProt P09599 28-333, looked up)
Sphingomyelinase C: DTSTDQNNTLKVMTHNVYMLSTNLYPNWGQSQRADLIGAADYIKNQDVVILNEVFDNSASDRLLGNLKKEYPNQTAVLGRSNGNEWDKTLGSYSSSTPEDGGVAIVSKWPIVEKIQYVFAKGCGPDNLSNKGFVYTKIKKNDRFVHVIGTHLQAEDSMCGKTSPASVRTNQLKEIQDFIKNKNIPNDEYVLFGGDMNVNKINAENNSDSEYASMFKTLHASIPSYTGHTATWDATTNSIAKYNFPDSPAEYLDYIIASKDHANPSFIENKVLQPKSPQWTVTSWLKKYTYDDYSDHYPVAATISMK

Assays:
LDL particles = target: T1, LDL particles (Homo sapiens, UniProt P04114); experiment: Ex vivo enrichment of LDL with phospholipid vesicles, then hrSMase-induced aggregation (DLS); type: biochemical; conditions: LDL from four healthy volunteers, enriched with 1 mM phospholipid vesicles
T1 construct: from tissue; host or cells: human blood plasma (LDL fraction d=1.019-1.063 g/ml, ultracentrifugation)
Procedure: In the standard assay, LDL isolated from human plasma was extensively dialyzed against 20 mM MES buffer, pH 5.5, containing 150 mM NaCl and 50 μM ZnCl2 and its apoB-100 concentration was determined by ELISA (Mabtech). The sample was diluted with the same buffer to give a final concentration of 0.2 mg of apoB-100/ml and 75 μg/ml of hrSMase was added to LDL. The size of LDL was determined immediately and once every hour for up to 6-hours. An aliquot was taken at the same time points for phosphorylcholine measurement. The degree of SM hydrolysis was determined by measuring the amount of phosphorylcholine from the samples with Amplex Red reagent (Invitrogen).
To exchange LDL surface phospholipids, LDL (2 mg/ml) was incubated with phospholipid vesicles (1 mM phosphatidylcholine 18:1/16:0 (1-palmityl-2-oleyl-sn-glycero-3-phosphocholine), lysophosphatidylcholine 16:0 (1-Palmitoyl-2-Hydroxy-sn-Glycero-3-Phosphocoline) or sphingomyelin 16:0 (N-Palmitoyl-D-erythro-sphingosylphosphorylcholine) each from Avanti Polar Lipids) overnight at 37° C. in buffer A (5 mM Tris, 150 mM NaCl, 1 mM EDTA, pH 7.4). The vesicles had been prepared by sonicating 10 mM lipid solutions using a Branson Sonifier 250 sonicator (6 times for 5 minutes) in buffer A. Vesicles were removed with sequential ultracentrifugation (d<1.019 g/ml KBr) repeated twice. […]

apoB-100 = target: T2, apoB-100 (Homo sapiens, UniProt P04114); experiment: Circular dichroism of phospholipid-enriched LDL after SMase treatment; type: biochemical; conditions: lipid-enriched LDL, SMase 30 min
T2 construct: from tissue; host or cells: human blood plasma (LDL fraction d=1.019-1.063 g/ml, ultracentrifugation)
Procedure: Samples of control and SM-, PC- and LPC-enriched LDL particles (1 mg/ml) were treated with SMase for 30-min and lipolysis was stopped by 10 mM EDTA. The LDL particles (50 μg/ml) were analyzed by CD as described previously (11,12).

LDL = LDL aggregation induced by oxidation, proteolysis or lipolysis, followed by DLS; type: biochemical, human; conditions: LDL 0.5 mg/ml from four donors; hrSMase at pH 5.5, other agents at pH 7.4
Procedure: Firstly, inter-individual variability in LDL aggregation using agents that have been reported to cause LDL aggregation was tested. LDL aggregation was induced at LDL concentration of 0.5 mg/ml by oxidation (incubation with 5 μM CuSO4), by proteolysis (incubation with 0.1 mg/ml α-chymotrypsin from bovine pancreas (Sigma-Aldrich)), or by lipolysis (incubation with 50 mU/ml phospholipase A2 (PLA2) from bee venom (Sigma-Aldrich)), with 200 mU/ml SMase from Bacillus cereus (bcSMase, Sigma-Aldrich)), or with 75 μg/ml hrSMase (a kind gift from Genzyme or produced in house). The incubation buffer was 20 mM Tris-HCl, pH 7.4, containing 150 mM NaCl and 2 mM CaCl2 and 2 mM MgCl2, except in the case of hrSMase, where the incubation buffer was 20 mM MES, pH 5.5, containing 150 mM NaCl and 50 μM ZnCl2. LDL size was determined at the beginning of the incubation and aggregate size was determined at the indicated time points by dynamic light scattering (DLS) (Zetasizer Nano, Malvern Instruments, Malvern Works, UK or Wyatt DynaPro Plate Reader 11, Wyatt Technology, California, USA).

T1 sequence (P04114 28-4563): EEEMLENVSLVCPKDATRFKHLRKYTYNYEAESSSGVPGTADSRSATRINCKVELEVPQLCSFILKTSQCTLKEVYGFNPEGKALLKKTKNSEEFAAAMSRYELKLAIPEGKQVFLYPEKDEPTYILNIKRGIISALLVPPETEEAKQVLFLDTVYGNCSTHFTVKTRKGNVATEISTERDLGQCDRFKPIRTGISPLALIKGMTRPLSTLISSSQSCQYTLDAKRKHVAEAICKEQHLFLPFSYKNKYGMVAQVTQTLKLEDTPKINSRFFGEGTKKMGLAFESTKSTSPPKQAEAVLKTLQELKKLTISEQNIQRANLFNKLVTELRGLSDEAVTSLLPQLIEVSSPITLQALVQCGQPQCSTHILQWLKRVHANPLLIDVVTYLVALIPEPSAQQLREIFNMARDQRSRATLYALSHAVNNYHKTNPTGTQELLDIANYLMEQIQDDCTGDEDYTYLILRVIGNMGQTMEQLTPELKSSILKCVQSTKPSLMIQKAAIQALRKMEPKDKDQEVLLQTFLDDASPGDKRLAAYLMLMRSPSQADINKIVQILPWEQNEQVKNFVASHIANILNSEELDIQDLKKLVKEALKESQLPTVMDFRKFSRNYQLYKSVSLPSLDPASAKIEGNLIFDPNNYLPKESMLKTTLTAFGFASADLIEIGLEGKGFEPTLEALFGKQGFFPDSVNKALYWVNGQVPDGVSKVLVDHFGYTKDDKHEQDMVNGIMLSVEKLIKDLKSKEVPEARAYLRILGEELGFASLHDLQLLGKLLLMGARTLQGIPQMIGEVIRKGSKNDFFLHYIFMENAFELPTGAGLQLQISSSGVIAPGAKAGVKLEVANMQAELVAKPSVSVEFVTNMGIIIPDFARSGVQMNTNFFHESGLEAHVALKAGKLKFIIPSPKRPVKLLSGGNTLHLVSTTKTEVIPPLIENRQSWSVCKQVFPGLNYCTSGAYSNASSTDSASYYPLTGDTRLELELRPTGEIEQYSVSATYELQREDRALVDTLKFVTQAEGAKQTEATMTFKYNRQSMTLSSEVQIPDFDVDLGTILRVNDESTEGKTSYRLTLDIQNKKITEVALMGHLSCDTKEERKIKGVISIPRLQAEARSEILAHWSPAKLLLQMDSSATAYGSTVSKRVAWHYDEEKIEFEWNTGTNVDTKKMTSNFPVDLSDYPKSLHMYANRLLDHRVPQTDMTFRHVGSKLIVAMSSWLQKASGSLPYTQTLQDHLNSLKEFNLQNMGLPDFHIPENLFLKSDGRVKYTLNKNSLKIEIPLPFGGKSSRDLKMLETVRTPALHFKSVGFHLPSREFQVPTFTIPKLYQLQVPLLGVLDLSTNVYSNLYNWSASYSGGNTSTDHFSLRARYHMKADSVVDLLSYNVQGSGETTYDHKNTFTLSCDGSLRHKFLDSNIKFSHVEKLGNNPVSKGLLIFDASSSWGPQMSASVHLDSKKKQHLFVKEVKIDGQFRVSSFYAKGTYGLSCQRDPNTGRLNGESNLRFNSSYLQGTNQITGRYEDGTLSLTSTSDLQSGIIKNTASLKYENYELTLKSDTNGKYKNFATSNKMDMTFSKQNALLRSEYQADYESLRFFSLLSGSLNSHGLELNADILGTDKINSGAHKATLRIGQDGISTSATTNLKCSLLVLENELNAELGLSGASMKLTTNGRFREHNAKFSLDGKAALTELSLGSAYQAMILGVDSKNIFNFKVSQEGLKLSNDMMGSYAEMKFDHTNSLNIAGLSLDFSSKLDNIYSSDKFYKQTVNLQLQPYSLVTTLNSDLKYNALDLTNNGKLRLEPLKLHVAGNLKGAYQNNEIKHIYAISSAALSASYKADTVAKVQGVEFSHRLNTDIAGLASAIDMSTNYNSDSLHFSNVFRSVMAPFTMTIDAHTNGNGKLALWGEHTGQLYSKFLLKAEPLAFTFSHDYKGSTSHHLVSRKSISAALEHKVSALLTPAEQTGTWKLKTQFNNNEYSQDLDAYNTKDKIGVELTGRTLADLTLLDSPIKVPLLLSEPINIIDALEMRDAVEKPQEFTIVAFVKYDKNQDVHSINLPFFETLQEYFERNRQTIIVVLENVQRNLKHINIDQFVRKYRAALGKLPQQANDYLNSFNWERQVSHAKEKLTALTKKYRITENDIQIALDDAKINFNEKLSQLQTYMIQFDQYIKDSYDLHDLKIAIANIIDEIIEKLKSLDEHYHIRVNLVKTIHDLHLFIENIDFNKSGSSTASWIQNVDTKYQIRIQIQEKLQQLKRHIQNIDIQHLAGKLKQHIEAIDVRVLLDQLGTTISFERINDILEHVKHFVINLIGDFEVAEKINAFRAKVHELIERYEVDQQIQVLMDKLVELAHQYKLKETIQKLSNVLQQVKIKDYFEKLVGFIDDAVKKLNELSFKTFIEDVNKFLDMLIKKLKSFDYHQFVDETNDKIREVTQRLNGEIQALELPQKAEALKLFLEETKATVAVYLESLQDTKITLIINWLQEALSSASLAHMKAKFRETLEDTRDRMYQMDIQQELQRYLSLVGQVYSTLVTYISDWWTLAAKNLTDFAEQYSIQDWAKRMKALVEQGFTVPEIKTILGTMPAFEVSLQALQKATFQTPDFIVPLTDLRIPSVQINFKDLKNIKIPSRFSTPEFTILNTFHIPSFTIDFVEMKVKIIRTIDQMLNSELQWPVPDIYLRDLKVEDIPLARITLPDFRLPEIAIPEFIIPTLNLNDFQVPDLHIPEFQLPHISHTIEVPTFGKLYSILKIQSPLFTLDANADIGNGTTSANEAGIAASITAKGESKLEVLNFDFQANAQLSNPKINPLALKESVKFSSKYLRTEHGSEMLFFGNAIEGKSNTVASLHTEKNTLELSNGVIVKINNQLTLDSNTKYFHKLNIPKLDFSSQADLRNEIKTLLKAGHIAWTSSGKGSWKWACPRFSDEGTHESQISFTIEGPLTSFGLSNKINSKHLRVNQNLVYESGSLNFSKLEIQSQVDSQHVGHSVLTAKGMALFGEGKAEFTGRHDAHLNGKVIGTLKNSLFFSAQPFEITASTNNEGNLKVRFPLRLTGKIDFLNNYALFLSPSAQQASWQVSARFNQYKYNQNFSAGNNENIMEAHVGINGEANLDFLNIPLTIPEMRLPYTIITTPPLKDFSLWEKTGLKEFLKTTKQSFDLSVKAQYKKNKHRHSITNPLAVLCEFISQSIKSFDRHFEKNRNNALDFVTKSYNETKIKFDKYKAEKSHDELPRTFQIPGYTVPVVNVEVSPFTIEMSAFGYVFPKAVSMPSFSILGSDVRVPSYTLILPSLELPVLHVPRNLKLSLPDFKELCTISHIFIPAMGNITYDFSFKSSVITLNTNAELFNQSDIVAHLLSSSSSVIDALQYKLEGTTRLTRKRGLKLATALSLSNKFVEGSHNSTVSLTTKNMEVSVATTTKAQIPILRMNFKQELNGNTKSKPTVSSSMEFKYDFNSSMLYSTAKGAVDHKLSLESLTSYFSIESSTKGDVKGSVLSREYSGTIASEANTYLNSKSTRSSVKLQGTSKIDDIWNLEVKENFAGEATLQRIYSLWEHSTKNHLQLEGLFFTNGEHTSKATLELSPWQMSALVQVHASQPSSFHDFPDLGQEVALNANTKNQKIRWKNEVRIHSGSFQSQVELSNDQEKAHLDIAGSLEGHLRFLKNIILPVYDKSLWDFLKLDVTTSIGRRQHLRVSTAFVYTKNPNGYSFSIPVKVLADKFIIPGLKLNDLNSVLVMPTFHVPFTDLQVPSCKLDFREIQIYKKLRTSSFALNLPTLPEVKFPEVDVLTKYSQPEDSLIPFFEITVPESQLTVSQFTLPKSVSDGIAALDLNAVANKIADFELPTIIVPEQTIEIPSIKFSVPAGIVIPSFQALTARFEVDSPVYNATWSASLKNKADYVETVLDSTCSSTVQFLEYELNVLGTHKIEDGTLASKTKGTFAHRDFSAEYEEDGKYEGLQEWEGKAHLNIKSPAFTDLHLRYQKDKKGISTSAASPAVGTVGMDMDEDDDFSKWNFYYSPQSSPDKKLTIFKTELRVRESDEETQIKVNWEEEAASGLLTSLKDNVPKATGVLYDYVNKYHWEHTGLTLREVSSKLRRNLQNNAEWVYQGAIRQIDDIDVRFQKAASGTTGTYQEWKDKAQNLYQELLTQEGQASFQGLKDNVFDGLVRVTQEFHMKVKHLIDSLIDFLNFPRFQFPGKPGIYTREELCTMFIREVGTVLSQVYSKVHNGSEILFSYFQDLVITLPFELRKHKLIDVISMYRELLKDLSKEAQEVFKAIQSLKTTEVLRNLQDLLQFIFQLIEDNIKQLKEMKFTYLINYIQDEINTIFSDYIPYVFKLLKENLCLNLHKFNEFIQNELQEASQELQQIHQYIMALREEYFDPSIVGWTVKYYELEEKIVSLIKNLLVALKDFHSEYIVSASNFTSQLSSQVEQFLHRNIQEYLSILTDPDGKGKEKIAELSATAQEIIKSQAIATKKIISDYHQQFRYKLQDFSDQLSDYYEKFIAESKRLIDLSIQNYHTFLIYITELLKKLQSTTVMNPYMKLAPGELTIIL
T2 sequence (P04114 28-4563): as above

| Molecule | Susceptibility of lipid-enriched LDL to aggregate during incubation with hrSMase, vs control LDL (LDL particles) | SMase-induced conformational changes in apoB-100 (apoB-100) | Aggregation of LDL (LDL) |
| --- | --- | --- | --- |
| CCCCCCCCCCCCCCCC(=O)OC[C@@H](O)COP(=O)([O-])OCC[N+](C)(C)C [LPC 16:0, 1-Palmitoyl-2-Hydroxy-sn-Glycero-3-Phosphocoline] | less susceptible | – | – |
| CCCCCCCCCCCCC/C=C/[C@@H](O)[C@H](COP(=O)([O-])OCC[N+](C)(C)C)NC(=O)CCCCCCCCCCCCCCC [SM 18:1/16:0, N-Palmitoyl-D-erythro-sphingosylphosphorylcholine] | more susceptible | enhanced | – |
| B1 | – | – | caused aggregation |

From patent US11442072B2, “Method for measuring LDL aggregation” (Jenny and Antti Wihuri Foundation, priority 2018, dated 2022)
